Where a name gives a salt, the structure may show the parent alone.

The subject of one data set is RAGE. As to the kind of experiment: Involvement of RAGE in brain penetration of d5 OXT: pre-treatment with RAGE antagonist FPS ZM1. It counts as in vivo, prairie vole (Microtus ochrogaster). The source says: Following confirmation of the presence of RAGE mRNA and protein in prairie vole brain using RT-PCR and immunohistochemistry as described in the Supplementary Material, we tested whether IN or IP administered OXT penetrates into the brain and whether the RAGE protein is involved in this transport. Adult female and male prairie voles were assigned to control or treatment groups. Animals in the treatment group received the high affinity, BBB-permeant RAGE antagonist FPS ZM1 and control animals received saline 30 min prior to administration of oxytocin-(leucine-5,5,5-d3, glycine-2,2-d2) trifluoroacetate salt (d5 OXT) in saline to all animals. […]
(§1) Alcohol and water intake were calculated for each animal as liquid consumed in grams (adjusted per density of 5% (v/v) ethanol and water) over body weight in kilograms. Alcohol and water drink size were determined by the volume of liquid consumed (ml) per consumption event. Consumptive visits were defined as channel entries during which a consumption event was recorded. […] Cumulative measures were analyzed at hourly intervals for 24 h post-treatment. […]
In 5 (1 control female, 2 control males, 1 pre-treated female and 1 pre-treated male) out of 57 cases levels were above or below 2 standard deviations from the mean and thus removed from analysis. In cases when no d5 OXT was detected, the concentration was entered as zero (17 total). […]

For another data set, the system named is AVPR1a. As to conditions: cited from earlier work. The source says:
Determining the behavioral and molecular effects of OXT on alcohol consumption is important for translational application and optimization of treatment efficacy. […] Given OXT’s low brain-penetrance and potentially non-specific effects on the related vasopressin receptor AVPR1a, development of an OXTR receptor agonist with a more desirable pharmacokinetic profile could increase the tran ...

Data set [1] has as its system prairie voles. Description: Continuous-access two-bottle choice (CA-2BC) alcohol drinking in socially housed prairie voles, HM2 cages, mixed-cage design. It counts as in vivo, prairie vole (Microtus ochrogaster). The procedure: For experiments examining the effects of pharmacologically targeting the OXT system on alcohol (and water) consumption, adult female and male prairie voles were given ad libitum access to alcohol in a CA-2BC design for 6 days. […] Fluid consumption was measured before and after treatment (IN OXT or IP LIT-001, or vehicle) using the Herdsman-2 (HM2; MBrose Faaborg, Denmark) cage system. The HM2 system is designed to allow socially housed animals unrestrained access to and interaction with other animals in the cage, while accounting for precise, individualized measures of fluid intake through the combined use of balances and radiofrequency identification (RFID) implants. This cage system has been previously utilized to assess potential pharmacotherapies for AUD in rodents. Further details are provided in the Supplementary Material (Supplementary Fig. S1). Consistent with previous studies, a mixed-cage design (treated and control animals in the same cage) was used.
OXT acetate salt (Bachem, Torrence, CA, USA) was dissolved in normal saline to doses of 5.0 mg/kg and 10.0 mg/kg (25 µl, IN). LIT-001 was synthesized in the laboratory of Dr. Marcel Hibert. It was dissolved in 5% dimethyl sulfoxide in saline and administered at a dose of 10 mg/kg (IP). FPS ZM1 (1 mg/kg, IP; Tocris, Minneapolis, MN, USA) and d5 OXT (3 µg/25 µl, IN or 12 µg/0.1 ml, IP; Sigma-Aldrich, St. Louis, MO, USA) were dissolved in saline. The d5 OXT dose was based on previous assessments of OXT penetrance.
Alcohol and water intake were calculated for each animal as liquid consumed in grams (adjusted per density of 5% (v/v) ethanol and water) over body weight in kilograms. Alcohol and water drink size were determined by the volume of liquid consumed (ml) per consumption event. Consumptive visits were defined as channel entries during which a consumption event was recorded. […] Cumulative measures were analyzed at hourly intervals for 24 h post-treatment. Concentrations of d5 OXT (pg/mg of tissue) were obtained through LC-MS/MS analysis on a Shimadzu Nexera-LCMS-8060 instrument using a previously established method. Data analysis was performed in IBM SPSS Statistics 27 and visualization was performed in Prism 9.3.1. The distribution of many of these measures was not normal. Therefore, non-parametric statistics were applied, including Kruskal–Wallis test and post hoc analyses with Mann–Whitney U-test. While Results below only include p values, detailed statistical analyses are presented in Supplementary Material Table S1.
The Herdsman-2 (HM2) system was used in the experiments measuring alcohol consumption. The HM2 cage system consists of Techniplast 1500U Eurostandard type IV S (48 x 37.5 x 21cm) rodent housing cages equipped with two (11cm) channels (front and back) on one side and stairs specially designed to accommodate prairie voles. Each channel leads to a bottle (one water, one 5% ethanol in water, v/v) below which is a precision balance with a catch tray for spillage- which is automatically deducted from consumption calculations. Breakage of the photobeam at the entrance of the channel triggers the RFID reader to register the animal. A consumption event is initiated when the animal touches the drinking spout and a change of weight of at least 0.02 g is detected; the starting weight is saved and ending weight is registered only after the system receives a stable reading for 5 s. A consumption event is ended 30s after the last touch of the drinking spout, regardless of whether the animal remains in the channel. The system collects a number of measures, including: weight of liquid consumed, number of channel entries and consumptive vs. non-nutritive visits (whether liquid is consumed or not). […]

For data set [2] the following is noted: cited from earlier work. The source says:
Determining the behavioral and molecular effects of OXT on alcohol consumption is important for translational application and optimization of treatment efficacy. […] While a statisti ...

For data set [3], the system named is prairie voles. As to conditions: both sexes, previous prairie vole study; cited from earlier work. The source says:
Importantly, RAGE immunoreactivity was detected in the choroid plexus, hypothalamus and hippocampus, confirming expression in possible locations of central penetration. […] Studies in mice noted that the IN route of administration can result in hi ...

The nature of a further data set: in vivo. The arrangement: species or system prairie vole (Microtus ochrogaster). As to conditions: for tissue level at time at 10 min: female.
From the text: Following confirmation of the presence of RAGE mRNA and protein in prairie vole brain using RT-PCR and immunohistochemistry as described in the Supplementary Material, we tested whether IN or IP administered OXT penetrates into the brain and whether the RAGE protein is involved in this transport. Adult female and male prairie voles were assigned to control or treatment groups. Animals in the treatment group received the high affinity, BBB-permeant RAGE antagonist FPS ZM1 and control animals received saline 30 min prior to administration of oxytocin-(leucine-5,5,5-d3, glycine-2,2-d2) trifluoroacetate salt (d5 OXT) in saline to all animals. After 10 min, animals were deeply anaesthetized under 4% isoflurane and perfused with heparinized saline. […] Brains were extracted and snap-frozen in isopentane, then stored at −80 °C until prepared for analysis via LC-MS/MS (Supplementary Fig. S2).
OXT acetate salt (Bachem, Torrence, CA, USA) was dissolved in normal saline to doses of 5.0 mg/kg and 10.0 mg/kg (25 µl, IN). LIT-001 was synthesized in the laboratory of Dr. Marcel Hibert. […]
as §1
Adult female and male prairie voles (75- 207d) were assigned to control (n =28; females = 14) or treatment (n = 29; females = 15) groups pseudo-randomly to ensure genetic diversity across groups. Whole brain tissue samples (~650 mg) were homogenized, subjected to protein precipitation and solid-phase extraction, and analyzed for concentrations (pg/mg) of exogenous oxytocin-(leucine-5,5,5-d3, glycine-2,2-d2) trifluoroacetate salt (d5 OXT) using a Shimadzu Nexera-LCMS-8060 (Shimadzu, Kyoto, Japan) liquid chromatograph-triple quadrupole mass spectrometer. […]

Consider `O=C(c1ccc(Cl)cc1)N(Cc1ccccc1)C1CCCCC1` [FPS ZM1], for which the “Effect of antagonist pre-treatment on brain d5 OXT levels after IP d5 OXT (in words)” value with RAGE (female or male prairie voles, FPS ZM1 1 mg/kg IP 30 min before IP d5 OXT, control vs antagonist pre-treated, ps > 0.21) is reported as “No significant differences”. Further, in the data set on RAGE (male prairie voles, FPS ZM1 1 mg/kg IP 30 min before IN d5 OXT, vs vehicle pre-treated controls, p = 0.02), the “Effect of antagonist pre-treatment on brain d5 OXT levels after IN d5 OXT (in words)” value is recorded as “significantly decreased”.

Consider TC-OT-39, for which the “Affinity for the AVPR1a (in words)” value in the data set on AVPR1a is “moderate affinity”.

As for Oxytocin [OXT], in the data set on prairie voles [1] (IN OXT 5 and 10 mg/kg, 3 h post-treatment), the “Water intake or drink size 3 h post-treatment (in words)” value is “No effect”. Further, the “Alcohol or water consumptive visits or non-nutritive visits (in words)” value in the data set with prairie voles [1] (IN OXT 5 and 10 mg/kg, females and males, any time point, p > 0.94) was “No significant differences”. Further, in the data set with prairie voles [1] (both doses of IN OXT (5 and 10 mg/kg), 2 h post-treatment, Kruskal-Wallis p = 0.02), the “Alcohol intake at 2 h post-treatment (in words)” value is on record as “decreased alcohol intake”. Also, in the data set with prairie voles [1] (female prairie voles, IN OXT 5 and 10 mg/kg), the “Effect on alcohol consumption in females (in words)” value is “without affecting alcohol consumption”. Further, the “Alcohol intake vs control counterparts (in words)” value in the data set with prairie voles [1] (male prairie voles, 5 mg/kg and 10 mg/kg IN OXT, 3 h post-treatment, Mann-Whitney p = 0.01 and p = 0.02) was “lower alcohol intake”. In the data set on prairie voles [1] (male prairie voles, 5 mg/kg and 10 mg/kg IN OXT, 3 h post-treatment, p = 0.01 and p = 0.02), the “Alcohol drink size vs control counterparts (in words)” value is listed as “smaller drink sizes”. Also, the “Water intake at 2 h post-treatment (in words)” value in the data set with prairie voles [1] (male prairie voles, 10 mg/kg IN OXT, 2 h post-treatment, p = 0.04) is given as “increased water intake”. For the same compound, in data set [2], the “Bioavailability (in words)” value is listed as “low bioavailability”, the “Metabolic stability (in words)” value was “metabolically unstable” and the “Oral availability (in words)” value is “not orally available”. In addition, the Half-life entry in data set [2] (estimated) is given as “tens of minutes”. The “Alcohol and water intake after IP OXT (in words)” value in the data set with prairie voles [3] was “decreased alcohol and water intake”.

Regarding `CC[C@H](C)[C@@H]1NC(=O)[C@H](Cc2ccc(O)cc2)NC(=O)[C@@H](N)CSSC[C@@H](C(=O)N2CCC[C@H]2C(=O)N[C@@H](CC(C)C)C(=O)NCC(N)=O)NC(=O)[C@H](CC(N)=O)NC(=O)[C@H](CCC(N)=O)NC1=O` [d5 OXT, oxytocin-(leucine-5,5,5-d3, glycine-2,2-d2) trifluoroacetate salt], the tissue level at time at 10 min in “in vivo” (3 ug) turned out to be 0.006 ng/g; in “in vivo” (ip, 12 ug), 0.05 ng/g. The “Presence of d5 OXT in brain (in words)” value in “in vivo” (ip) is reported as “detected”.

Regarding `Cc1cc(C(=O)N2Cc3cnn(C)c3Nc3ccccc32)ccc1CNC(=O)N1CCN(Cc2cc(O)cc(O)c2)CC1` [WAY-267646], in the data set with AVPR1a, the “Affinity for the AVPR1a (in words)” value is reported as “moderate affinity”.

Source of the values: publication PMC10156683, “Male-selective effects of oxytocin agonism on alcohol intake: behavioral assessment in socially housed prairie voles and involvement of RAGE” (Neuropsychopharmacology, 2022).
